The results in this text go back to US20100215777A1, “Malononitrile Compounds” (BASF SE, priority 2006, published 2010).

By melting point is commonly meant the temperature, or range, at which the solid turns liquid. `N#CC(C#N)(CCCSC(F)(F)F)CC(F)(F)C(F)(F)C(F)(F)C(F)(F)C(F)(F)F` returned a melting point of 88 to 90 °C.
